According to ChEMBL document CHEMBL3352346, “Optimization of sphingosine-1-phosphate-1 receptor agonists: effects of acidic, basic, and zwitterionic chemotypes on pharmacokinetic and pharmacodynamic profiles” (J Med Chem, 2014):
≈ marks a conversion by molar mass, not a printed value. Calls of active or inactive are those of the source. The calls are words filed in the database; no cut-off is given here.

How the values were obtained:
[1] = target: Sphingosine 1-phosphate receptor 1 (Homo sapiens, UniProt P21453); assay: Agonist activity at human S1P1R expressed in RH7777 membranes assessed as [35S]GTPgammaS binding after 30 mins; format: functional, cell membranes
[2] = target: Sphingosine 1-phosphate receptor 3 (Homo sapiens, UniProt Q99500); assay: Agonist activity at human S1P3R expressed in RBL membranes assessed as [35S]GTPgammaS binding after 30 mins; format: functional, cell membranes
[3] = Solubility in fed-state simulated intestinal fluid at pH 5 after 24 hrs; format: ADME
[4] = Solubility in fed-state simulated intestinal fluid at pH 6.5 after 24 hrs; format: ADME
Cytochrome P450 1A2 = target: T1, Cytochrome P450 1A2 (Homo sapiens, UniProt P05177); assay: Inhibition of CYP1A2 (unknown origin); format: ADME
T1 sequence (P05177 whole entry): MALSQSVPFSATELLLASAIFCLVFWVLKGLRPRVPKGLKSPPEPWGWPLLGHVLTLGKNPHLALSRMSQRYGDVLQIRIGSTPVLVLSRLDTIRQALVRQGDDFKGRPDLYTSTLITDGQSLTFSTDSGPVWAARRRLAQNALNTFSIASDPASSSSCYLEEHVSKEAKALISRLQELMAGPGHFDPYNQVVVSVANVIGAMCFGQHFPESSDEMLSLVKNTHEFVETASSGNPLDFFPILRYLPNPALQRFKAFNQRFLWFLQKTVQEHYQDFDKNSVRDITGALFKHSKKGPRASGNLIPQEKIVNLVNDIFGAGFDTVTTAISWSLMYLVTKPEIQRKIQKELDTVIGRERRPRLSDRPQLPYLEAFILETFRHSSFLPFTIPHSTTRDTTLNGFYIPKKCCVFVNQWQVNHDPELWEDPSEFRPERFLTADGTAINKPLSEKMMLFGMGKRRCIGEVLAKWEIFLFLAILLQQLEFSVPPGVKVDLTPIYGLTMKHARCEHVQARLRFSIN

Cytochrome P450 2C9 = Cytochrome P450 2C9 (Homo sapiens, UniProt P11712); assay: Inhibition of CYP2C9 (unknown origin); format: ADME
Cytochrome P450 2C19 = Cytochrome P450 2C19 (Homo sapiens, UniProt P33261); assay: Inhibition of CYP2C19 (unknown origin); format: ADME
Cytochrome P450 2D6 = Cytochrome P450 2D6 (Homo sapiens, UniProt P10635); assay: Inhibition of CYP2D6 (unknown origin); format: ADME
[5] = Inhibition of CYP3A4VG (unknown origin); format: ADME, Homo sapiens
[6] = Inhibition of CYP3A4VR (unknown origin); format: ADME, Homo sapiens
[7] = Permeability in MDCK cells; format: ADME, cell-based, Canis lupus familiaris; conditions: dog, read-out: permeability
Hepatocyte = assay: Intrinsic clearance in rat hepatocyte; format: ADME, cell-based; conditions: hepatocytes
[8] = Intrinsic clearance in dog hepatocyte; format: ADME, cell-based, Canis lupus familiaris; conditions: hepatocytes
Rattus norvegicus [9] = assay: Reduction in lymphocyte level in po dosed male Lewis rat; format: functional, organism-based
[10] = Clearance in CD rat at 1 mg/kg, iv or 3 mg/kg, po using DMSO/10%(w/v) Kleptose, 0.9% saline(aq) (2%/98%); format: ADME, organism-based; conditions: in vivo
[11] = Volume of distribution at steady state in CD rat at 1 mg/kg, iv or 3 mg/kg, po using DMSO/10%(w/v) Kleptose, 0.9% saline(aq) (2%/98%); format: ADME, organism-based; conditions: in vivo, read-out: Vdss
[12] = Half life in CD rat at 1 mg/kg, iv or 3 mg/kg, po using DMSO/10%(w/v) Kleptose, 0.9% saline(aq) (2%/98%); format: ADME, organism-based; conditions: in vivo
[13] = (§1) Oral bioavailability in CD rat at 3 mg/kg using Methylcellulose(aq), 1% (w/v) suspension; format: ADME, organism-based; conditions: CD, in vivo
[14] = Clearance in Beagle dog at 1 mg/kg, iv or 2 mg/kg, po using DMSO/10%(w/v) Kleptose, 0.9% saline(aq) (2%/98%); format: ADME, organism-based, Canis lupus familiaris; conditions: in vivo
[15] = (§2) Volume of distribution at steady state in Beagle dog at 1 mg/kg, iv or 2 mg/kg, po using DMSO/10%(w/v) Kleptose, 0.9% saline(aq) (2%/98%); format: ADME, organism-based, Canis lupus familiaris; conditions: beagle, in vivo, read-out: Vdss
[16] = (§3) Half life in Beagle dog at 1 mg/kg, iv or 2 mg/kg, po using DMSO/10%(w/v) Kleptose, 0.9% saline(aq) (2%/98%); format: ADME, organism-based, Canis lupus familiaris; conditions: beagle, in vivo
[17] = (§4) Oral bioavailability in Beagle dog at 2 mg/kg using Methylcellulose(aq), 1% (w/v) suspension; format: ADME, organism-based, Canis lupus familiaris; conditions: beagle, in vivo
[18] = Solubility in simulated gastric fluid; format: ADME
[19] = Dissociation constant, pKa of the compound; format: physicochemical
Rattus norvegicus [20] = assay: Reduction of lymphocyte count in rat at 0.3 to 3 mg/kg, po measured relative to control; format: functional, organism-based
Albumin = Albumin (Homo sapiens, UniProt P02768); assay: Fraction unbound as a percentage in human serum albumin; format: ADME
[21] = Fraction unbound in rat blood; format: ADME, tissue-based
[22] = Fraction unbound in dog blood; format: ADME, tissue-based, Canis lupus familiaris
[23] = Fraction unbound in human blood; format: ADME, tissue-based
[24] = Fraction unbound in cynomolgus monkey blood; format: ADME, tissue-based, Macaca fascicularis
[25] = Intrinsic clearance in cynomolgus monkey hepatocyte; format: ADME, cell-based, Macaca fascicularis; conditions: hepatocytes, read-out: CLH
[26] = Clearance in cynomolgus monkey at 1 mg/kg, iv or 3 mg/kg, po using DMSO/10%(w/v) Kleptose, 0.9% saline(aq) (2%/98%); format: ADME, organism-based, Macaca fascicularis; conditions: in vivo
[27] = Volume of distribution at steady state in cynomolgus monkey at 1 mg/kg, iv or 3 mg/kg, po using DMSO/10%(w/v) Kleptose, 0.9% saline(aq) (2%/98%); format: ADME, organism-based, Macaca fascicularis; conditions: in vivo, read-out: Vdss
[28] = Half life in cynomolgus monkey at 1 mg/kg, iv or 3 mg/kg, po using DMSO/10%(w/v) Kleptose, 0.9% saline(aq) (2%/98%); format: ADME, organism-based, Macaca fascicularis; conditions: in vivo
[29] = Oral bioavailability in cynomolgus monkey at 3 mg/kg using Methylcellulose(aq), 1% (w/v) suspension; format: ADME, organism-based, Macaca fascicularis; conditions: in vivo
Rattus norvegicus [30] = assay: as §1; format: ADME, organism-based; conditions: in vivo
Canis familiaris [31] = assay: as §2; format: ADME, organism-based, Canis lupus familiaris; conditions: in vivo
Canis familiaris [32] = assay: as §3; format: ADME, organism-based, Canis lupus familiaris; conditions: in vivo
Canis familiaris [33] = assay: as §4; format: ADME, organism-based, Canis lupus familiaris; conditions: in vivo
[34] = Clearance in CD rat at 1 mg/kg, iv or 3 mg/kg, po using DMSO/10%(w/v) Kleptose, 0.9% saline(aq) (5%/95%); format: ADME, organism-based; conditions: in vivo
[35] = Volume of distribution at steady state in CD rat at 1 mg/kg, iv or 3 mg/kg, po using DMSO/10%(w/v) Kleptose, 0.9% saline(aq) (5%/95%); format: ADME, organism-based; conditions: in vivo, read-out: Vdss
[36] = Half life in CD rat at 1 mg/kg, iv or 3 mg/kg, po using DMSO/10%(w/v) Kleptose, 0.9% saline(aq) (5%/95%); format: ADME, organism-based; conditions: in vivo

Sphingosine 1-phosphate receptor 1, sequence (P21453 whole entry): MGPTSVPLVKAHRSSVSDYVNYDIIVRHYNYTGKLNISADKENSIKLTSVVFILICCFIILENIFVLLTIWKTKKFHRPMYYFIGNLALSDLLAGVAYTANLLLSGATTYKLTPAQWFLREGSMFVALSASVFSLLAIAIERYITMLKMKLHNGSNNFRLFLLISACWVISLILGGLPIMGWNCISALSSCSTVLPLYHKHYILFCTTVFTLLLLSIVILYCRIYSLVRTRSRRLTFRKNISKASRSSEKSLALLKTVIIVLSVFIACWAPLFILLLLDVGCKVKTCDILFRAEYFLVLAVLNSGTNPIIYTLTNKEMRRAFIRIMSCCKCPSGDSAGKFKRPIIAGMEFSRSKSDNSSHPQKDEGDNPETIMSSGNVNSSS
Cytochrome P450 2D6, sequence (P10635 whole entry): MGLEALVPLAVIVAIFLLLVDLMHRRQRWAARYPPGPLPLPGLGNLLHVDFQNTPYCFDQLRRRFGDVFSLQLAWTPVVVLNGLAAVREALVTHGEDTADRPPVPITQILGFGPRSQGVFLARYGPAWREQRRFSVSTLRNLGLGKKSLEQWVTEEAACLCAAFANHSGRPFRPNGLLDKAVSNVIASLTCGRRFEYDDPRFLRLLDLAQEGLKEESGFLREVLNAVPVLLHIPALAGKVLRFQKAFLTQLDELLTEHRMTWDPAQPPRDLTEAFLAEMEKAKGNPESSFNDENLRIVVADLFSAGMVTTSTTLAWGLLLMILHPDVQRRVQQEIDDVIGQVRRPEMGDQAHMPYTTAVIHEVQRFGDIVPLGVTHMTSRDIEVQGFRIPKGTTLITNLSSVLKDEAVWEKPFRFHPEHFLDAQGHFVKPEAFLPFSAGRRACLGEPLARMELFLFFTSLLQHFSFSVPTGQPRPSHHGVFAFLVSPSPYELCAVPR
Cytochrome P450 2C19, sequence (P33261 whole entry): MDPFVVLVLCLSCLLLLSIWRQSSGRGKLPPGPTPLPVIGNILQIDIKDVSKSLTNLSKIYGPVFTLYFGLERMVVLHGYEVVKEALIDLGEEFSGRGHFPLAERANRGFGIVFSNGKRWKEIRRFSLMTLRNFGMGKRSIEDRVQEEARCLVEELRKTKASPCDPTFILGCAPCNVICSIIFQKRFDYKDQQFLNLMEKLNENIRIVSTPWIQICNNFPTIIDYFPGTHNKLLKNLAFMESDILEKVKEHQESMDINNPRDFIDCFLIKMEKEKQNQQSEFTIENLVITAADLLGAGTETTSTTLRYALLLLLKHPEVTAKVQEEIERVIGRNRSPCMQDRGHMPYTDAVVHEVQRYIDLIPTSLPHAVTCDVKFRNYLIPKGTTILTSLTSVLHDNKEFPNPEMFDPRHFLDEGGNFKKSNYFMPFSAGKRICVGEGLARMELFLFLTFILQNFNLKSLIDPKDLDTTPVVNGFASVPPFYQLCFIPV
Cytochrome P450 2C9, sequence (P11712 whole entry): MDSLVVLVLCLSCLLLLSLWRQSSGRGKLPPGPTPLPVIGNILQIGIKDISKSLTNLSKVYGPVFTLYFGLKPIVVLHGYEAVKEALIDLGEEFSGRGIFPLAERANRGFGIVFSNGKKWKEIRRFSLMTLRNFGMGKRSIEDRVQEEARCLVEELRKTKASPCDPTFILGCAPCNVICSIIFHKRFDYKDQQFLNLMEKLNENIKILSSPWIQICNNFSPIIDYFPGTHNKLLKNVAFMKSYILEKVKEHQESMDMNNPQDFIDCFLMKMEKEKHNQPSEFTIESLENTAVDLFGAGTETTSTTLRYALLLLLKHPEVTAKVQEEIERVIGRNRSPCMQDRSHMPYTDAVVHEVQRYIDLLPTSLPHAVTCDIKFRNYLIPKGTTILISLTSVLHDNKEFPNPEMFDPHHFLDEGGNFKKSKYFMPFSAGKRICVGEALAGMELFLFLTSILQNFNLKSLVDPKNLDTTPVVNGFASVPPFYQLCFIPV
Sphingosine 1-phosphate receptor 3, sequence (Q99500 whole entry): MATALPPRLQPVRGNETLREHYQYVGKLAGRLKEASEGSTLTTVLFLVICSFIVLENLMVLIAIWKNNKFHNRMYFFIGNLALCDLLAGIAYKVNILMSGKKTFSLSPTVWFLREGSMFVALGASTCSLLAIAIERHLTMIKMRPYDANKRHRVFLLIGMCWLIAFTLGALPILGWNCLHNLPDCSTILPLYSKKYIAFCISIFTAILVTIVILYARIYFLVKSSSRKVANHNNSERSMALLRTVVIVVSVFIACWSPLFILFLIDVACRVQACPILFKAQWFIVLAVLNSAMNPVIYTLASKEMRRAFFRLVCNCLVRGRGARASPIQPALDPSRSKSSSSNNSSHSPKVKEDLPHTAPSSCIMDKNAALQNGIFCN
Albumin, sequence (P02768 whole entry): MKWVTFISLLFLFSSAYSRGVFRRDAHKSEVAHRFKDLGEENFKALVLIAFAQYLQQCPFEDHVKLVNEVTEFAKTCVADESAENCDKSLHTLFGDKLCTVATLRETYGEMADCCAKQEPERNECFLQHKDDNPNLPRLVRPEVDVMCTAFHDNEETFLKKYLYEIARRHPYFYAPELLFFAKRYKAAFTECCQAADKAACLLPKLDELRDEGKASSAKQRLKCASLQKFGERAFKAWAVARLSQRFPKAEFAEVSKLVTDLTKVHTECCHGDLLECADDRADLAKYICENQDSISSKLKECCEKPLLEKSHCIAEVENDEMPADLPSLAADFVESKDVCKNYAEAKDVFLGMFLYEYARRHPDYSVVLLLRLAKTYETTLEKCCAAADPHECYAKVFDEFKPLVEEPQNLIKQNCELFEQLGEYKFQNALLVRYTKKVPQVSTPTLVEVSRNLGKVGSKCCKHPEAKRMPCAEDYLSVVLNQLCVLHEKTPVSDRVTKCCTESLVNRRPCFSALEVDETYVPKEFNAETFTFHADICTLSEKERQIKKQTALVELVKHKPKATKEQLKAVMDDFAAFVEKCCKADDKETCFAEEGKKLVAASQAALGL

Structure (SMILES) | EC50 [1] | EC50 [2] | solubility at 24 h [3] | solubility at 24 h [4] | IC50 (Cytochrome P450 1A2) | IC50 (Cytochrome P450 2C9) | IC50 (Cytochrome P450 2C19) | IC50 (Cytochrome P450 2D6) | IC50 [5] | IC50 [6] | Papp [7] | CLH (Hepatocyte) | CLH [8] | IC50 (Rattus norvegicus [9]; Rattus norvegicus, Lewis) | clearance [10] | Vd [11] | half-life [12] | bioavailability [13] | clearance [14] | Vd [15] | other results
CC(C)Oc1ccc(-c2nc(-c3ccc4c(c3)CCN(CCCC(=O)O)CC4)no2)cc1C#N | 0.00794 µM | 7.94 µM | 100 µg/mL (≈ 217 µM) | 30 µg/mL (≈ 65.1 µM) | > 50 µM | > 50 µM | > 50 µM | > 50 µM | > 50 µM | > 50 µM | 15 ×10⁻⁶ cm/s | < 0.85 mL/min/g | < 1.7 mL/min/g | 0.015 µM | 7 mL/min/kg | 1.5 L/kg | 2.6 h | 62% | 3 mL/min/kg | 1.6 L/kg | half-life [16]: 8 h; bioavailability [17]: 69%; solubility [18]: 20 µg/mL (≈ 43.4 µM); pKa [19]: 9.15; inhibition (Rattus norvegicus [20]): Active
CC(C)Oc1ccc(-c2nc(-c3cccc4c3cnn4CCC(=O)[O-])no2)cc1Cl.[Na+] | 0.02 µM | > 31.6 µM | 44 µg/mL | 11 µg/mL | > 50 µM | 7 µM | > 50 µM | > 50 µM | 28 µM | 25 µM | 20.3 ×10⁻⁶ cm/s | < 0.9 mL/min/g | < 1.7 mL/min/g | 0.117 µM | 2 mL/min/kg | 1 L/kg | 7.5 h | 96% | 4 mL/min/kg | 1 L/kg | fraction unbound (Albumin): 0.012; fraction unbound [21]: 0.0017; fraction unbound [22]: 0.002; fraction unbound [23]: 0.001; fraction unbound [24]: 0.0018; CLint scaled [25]: < 0.9 mL/min/kg; half-life [16]: 3.9 h; bioavailability [17]: 94%; clearance [26]: 3 mL/min/kg; Vd [27]: 0.4 L/kg; half-life [28]: 1.2 h; bioavailability [29]: 59%
CC(C)Oc1ncc(-c2nc(-c3cccc4c3OCCNC4CCCC(=O)O)no2)cc1Cl (single isomer, unassigned; enantiomer 1) | 0.0398 µM | 20 µM |  |  | > 50 µM | > 50 µM | > 50 µM | > 50 µM |  |  |  |  | 4 mL/min/g |  |  |  |  |  |  |  | Fu [22]: 0.01; Fu [23]: 0.014; IC50 (Rattus norvegicus [9]): 0.091 µM; F (Rattus norvegicus [30]): 87%; Vdss (Canis familiaris [31]): 1.5 L/kg; t1/2 (Canis familiaris [32]): 0.84 h; F (Canis familiaris [33]): 50%; clearance [34]: 1.03 mL/min/kg; Vd [35]: 0.6 L/kg; half-life [36]: 6.4 h
